Results from PubChem BioAssay (NCI).
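Five compound concentrations were applied to cells in 96-well plates for 48 hours; endpoints were derived by simple linear interpolation of the resulting dose-response curve. GI50: concentration for 50% inhibition of growth. TGI: total growth inhibition.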

How the values were obtained:
Assay in all cases: NCI tumour cell line growth inhibition, 48 h
A549 NSCLC = test system: A549 NSCLC
HCC-2998 colon = test system: HCC-2998 colon
ACHN renal = test system: ACHN renal
HS 578T breast = test system: HS 578T breast
OVCAR-4 ovarian = test system: OVCAR-4 ovarian
MDA-MB-435 = test system: MDA-MB-435
MCF7 breast = test system: MCF7 breast
SF-268 CNS = test system: SF-268 CNS
TK-10 renal = test system: TK-10 renal
SK-MEL-5 melanoma = test system: SK-MEL-5 melanoma
SK-OV-3 ovarian = test system: SK-OV-3 ovarian
HCT-116 colon = test system: HCT-116 colon
PC-3 prostate = test system: PC-3 prostate
NCI-H460 lung = test system: NCI-H460 lung
MALME-3M melanoma = test system: MALME-3M melanoma
HOP-62 NSCLC = test system: HOP-62 NSCLC
OVCAR-5 ovarian = test system: OVCAR-5 ovarian
CCRF-CEM leukemia = test system: CCRF-CEM leukemia
K-562 leukemia = test system: K-562 leukemia
MOLT-4 leukemia = test system: MOLT-4 leukemia
EKVX NSCLC = test system: EKVX NSCLC
HCT-15 colon = test system: HCT-15 colon
SNB-75 CNS = test system: SNB-75 CNS
HL-60(TB) leukemia = test system: HL-60(TB) leukemia
RPMI-8226 leukemia = test system: RPMI-8226 leukemia
LOX IMVI melanoma = test system: LOX IMVI melanoma
DU-145 prostate = test system: DU-145 prostate
786-0 renal = test system: 786-0 renal
UO-31 renal = test system: UO-31 renal
SR leukemia = test system: SR leukemia
OVCAR-3 ovarian = test system: OVCAR-3 ovarian
OVCAR-8 ovarian = test system: OVCAR-8 ovarian
NCI-H23 lung = test system: NCI-H23 lung
SW-620 colon = test system: SW-620 colon
SK-MEL-28 melanoma = test system: SK-MEL-28 melanoma
T-47D breast = test system: T-47D breast
HT29 colon = test system: HT29 colon
IGROV1 ovarian = test system: IGROV1 ovarian
BT-549 breast = test system: BT-549 breast
SK-MEL-2 melanoma = test system: SK-MEL-2 melanoma
UACC-257 melanoma = test system: UACC-257 melanoma
SNB-19 CNS = test system: SNB-19 CNS
SF-539 CNS = test system: SF-539 CNS
U251 CNS = test system: U251 CNS
RXF 393 renal = test system: RXF 393 renal
SF-295 CNS = test system: SF-295 CNS
KM12 colon = test system: KM12 colon
NCI/ADR-RES ovarian = test system: NCI/ADR-RES ovarian
M14 melanoma = test system: M14 melanoma
NCI-H522 lung = test system: NCI-H522 lung
MDA-MB-231 breast = test system: MDA-MB-231 breast
CAKI-1 renal = test system: CAKI-1 renal
UACC-62 melanoma = test system: UACC-62 melanoma
NCI-H226 lung = test system: NCI-H226 lung
SN12C renal = test system: SN12C renal
HOP-92 NSCLC = test system: HOP-92 NSCLC
COLO 205 colon = test system: COLO 205 colon
A498 renal = test system: A498 renal

O=C(Nc1ccccc1C(F)(F)F)c1cccc(NC2=C(Cl)C(=O)N(Cc3ccccc3)C2=O)c1
GI50 (A549 NSCLC): 28.2 µM | TGI (A549 NSCLC): > 77.8 µM | GI50 (HCC-2998 colon): 21.5 µM | TGI (HCC-2998 colon): 50.8 µM | GI50 (ACHN renal): 5.39 µM | TGI (ACHN renal): 26.9 µM | GI50 (HS 578T breast): 8.27 µM | TGI (HS 578T breast): 28.5 µM | GI50 (OVCAR-4 ovarian): 45.1 µM | TGI (OVCAR-4 ovarian): > 100 µM | GI50 (MDA-MB-435): 4.2 µM | TGI (MDA-MB-435): > 33 µM | GI50 (MCF7 breast): 2.68 µM | TGI (MCF7 breast): 27.1 µM | GI50 (SF-268 CNS): 9.32 µM | TGI (SF-268 CNS): > 25.3 µM | GI50 (TK-10 renal): 6.85 µM | TGI (TK-10 renal): 37.2 µM | TGI (SK-MEL-5 melanoma): 3.04 µM | GI50 (SK-OV-3 ovarian): 38.9 µM | TGI (SK-OV-3 ovarian): > 100 µM | GI50 (HCT-116 colon): 14.9 µM | TGI (HCT-116 colon): > 55.1 µM | GI50 (PC-3 prostate): 8.78 µM | TGI (PC-3 prostate): > 53 µM | GI50 (NCI-H460 lung): 3.52 µM | TGI (NCI-H460 lung): 15.9 µM | GI50 (MALME-3M melanoma): 42.6 µM | TGI (MALME-3M melanoma): > 100 µM | GI50 (HOP-62 NSCLC): 19.1 µM | TGI (HOP-62 NSCLC): > 52.2 µM | GI50 (OVCAR-5 ovarian): 20 µM | TGI (OVCAR-5 ovarian): > 100 µM | GI50 (CCRF-CEM leukemia): 10.4 µM | TGI (CCRF-CEM leukemia): 31.7 µM | GI50 (K-562 leukemia): 3.55 µM | TGI (K-562 leukemia): > 100 µM | GI50 (MOLT-4 leukemia): 4.29 µM | TGI (MOLT-4 leukemia): 30.8 µM | GI50 (EKVX NSCLC): 13.2 µM | TGI (EKVX NSCLC): 52.6 µM | GI50 (HCT-15 colon): 3.8 µM | TGI (HCT-15 colon): > 24.5 µM | GI50 (SNB-75 CNS): 30.7 µM | TGI (SNB-75 CNS): > 57.6 µM | GI50 (HL-60(TB) leukemia): 31.8 µM | TGI (HL-60(TB) leukemia): > 100 µM | GI50 (RPMI-8226 leukemia): 13.1 µM | TGI (RPMI-8226 leukemia): > 100 µM | GI50 (LOX IMVI melanoma): 5.87 µM | TGI (LOX IMVI melanoma): 36.9 µM | GI50 (DU-145 prostate): 8.19 µM | TGI (DU-145 prostate): 44 µM | GI50 (786-0 renal): 12.4 µM | TGI (786-0 renal): > 40.1 µM | GI50 (UO-31 renal): 19.8 µM | TGI (UO-31 renal): 97.8 µM | GI50 (SR leukemia): 0.447 µM | TGI (SR leukemia): 4.35 µM | GI50 (OVCAR-3 ovarian): 6.62 µM | TGI (OVCAR-3 ovarian): > 43.8 µM | GI50 (OVCAR-8 ovarian): 42.3 µM | TGI (OVCAR-8 ovarian): > 72.1 µM | GI50 (NCI-H23 lung): 19.2 µM | TGI (NCI-H23 lung): 62.5 µM | GI50 (SW-620 colon): 22 µM | TGI (SW-620 colon): > 100 µM | GI50 (SK-MEL-28 melanoma): > 90.2 µM | TGI (SK-MEL-28 melanoma): > 100 µM | GI50 (T-47D breast): 62.7 µM | TGI (T-47D breast): > 100 µM | GI50 (HT29 colon): 65.6 µM | TGI (HT29 colon): > 100 µM | GI50 (IGROV1 ovarian): 0.985 µM | TGI (IGROV1 ovarian): 18.8 µM | GI50 (BT-549 breast): 8.25 µM | TGI (BT-549 breast): 45.1 µM | GI50 (SK-MEL-2 melanoma): 14.9 µM | TGI (SK-MEL-2 melanoma): 79 µM | GI50 (UACC-257 melanoma): 11.2 µM | TGI (UACC-257 melanoma): 70.1 µM | GI50 (SNB-19 CNS): 34 µM | TGI (SNB-19 CNS): > 100 µM | GI50 (SF-539 CNS): 12.1 µM | TGI (SF-539 CNS): 34.8 µM | GI50 (U251 CNS): 6.68 µM | TGI (U251 CNS): 41.7 µM | GI50 (RXF 393 renal): 3.13 µM | TGI (RXF 393 renal): 12.3 µM | GI50 (SF-295 CNS): > 19.9 µM | TGI (SF-295 CNS): > 45.5 µM | GI50 (KM12 colon): 19.2 µM | TGI (KM12 colon): > 85.2 µM | GI50 (NCI/ADR-RES ovarian): 9.14 µM | TGI (NCI/ADR-RES ovarian): 40.7 µM | GI50 (M14 melanoma): 23 µM | TGI (M14 melanoma): > 76.8 µM | TGI (NCI-H522 lung): 0.0672 µM | GI50 (MDA-MB-231 breast): 3.86 µM | TGI (MDA-MB-231 breast): 21.4 µM | GI50 (CAKI-1 renal): 21.1 µM | TGI (CAKI-1 renal): > 67.2 µM | GI50 (UACC-62 melanoma): 9.46 µM | TGI (UACC-62 melanoma): 52.7 µM | GI50 (NCI-H226 lung): 15.4 µM | TGI (NCI-H226 lung): 52.9 µM | GI50 (SN12C renal): 7.49 µM | TGI (SN12C renal): > 57.4 µM | GI50 (HOP-92 NSCLC): 26.3 µM | TGI (HOP-92 NSCLC): > 100 µM | GI50 (COLO 205 colon): 39.4 µM | TGI (COLO 205 colon): > 100 µM | GI50 (A498 renal): 11.3 µM | TGI (A498 renal): 37 µM
